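Interpolation was linear, between the two tested concentrations surrounding the appropriate level; five concentrations were tested over 48 hours in 96-well plates. Abbreviation: GI50, concentration required for 50% inhibition of growth.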 Active and inactive are the calls of the source. Rule as the data show it: active = GI50 up to about 1.1 µM and inactive = higher. Bounds are passed on as bounds.

Common to all, as to assay: NCI-60 cell line screen, 48 h
The subject of assay [1] is A498.
Assay [2] relates to OVCAR-4.
The subject of assay [3] is OVCAR-3.
Assay [4] deals with UO-31.
The test system of assay [5] is 786-0.
Assay [6] concerns NCI-H23.
Assay [7] deals with NCI-H226.
Assay [8] concerns SN12C.
The test system of assay [9] is MCF7.
Assay [10] relates to BT-549.
Assay [11] has as its system A549.
The subject of assay [12] is NCI/ADR-RES.
Assay [13] deals with HL-60.
Assay [14] relates to CCRF-CEM.
The subject of assay [15] is MDA-MB-231.
The test system of assay [16] is SK-MEL-2.
Assay [17] concerns RXF 393.
The subject of assay [18] is SK-MEL-5.
Assay [19] concerns K562.
Assay [20] deals with Malme-3M.

As for `Oc1ccc(C[C@@H]2CN[C@H](Cc3ccc(O)c(Br)c3)CN2)cc1`, the GI50 in assay [1], in assay [2], in assay [3], in [4], in assay [5] and in assay [6] was > 100 µM (inactive) in each case. Moreover, the GI50 in [7], in assay [8], in assay [9], in [10], in [11] and in [12] was > 100 µM (inactive) each time. The GI50 in assay [13] was > 100 µM (inactive); in assay [14], > 100 µM (inactive); in [15] it was > 100 µM (inactive); in [16], > 100 µM (inactive); in assay [17] it was 84.3 µM (inactive).
Regarding `COC(=O)[C@H](Cc1ccccc1)NC(=O)N(CCC#N)CCN(C(=O)N[C@@H](Cc1ccccc1)C(=O)OC)c1ccccc1`, the GI50 is 23 µM (inactive) in [1]; 23.6 µM (inactive) in [2]; 19.9 µM (inactive) in assay [3]; 17.6 µM (inactive) in [4]; 9.2 µM (inactive) in [5]; 32.7 µM (inactive) in assay [6]. Moreover, the GI50 in [7] is 30 µM (inactive); in assay [8], 32.2 µM (inactive); in assay [9] it was 38.5 µM (inactive); in [10] it was 49.3 µM (inactive); in assay [11], 47.1 µM (inactive); in assay [18], 22.9 µM (inactive). The GI50 in assay [12] is > 100 µM (inactive); in assay [14], 27.2 µM (inactive); in assay [15], 26.7 µM (inactive); in assay [16], 18.5 µM (inactive); in assay [17], 18.2 µM (inactive).
Consider `O=C(OCc1ccccc1)N1c2cc([N+](=O)[O-])ccc2C(=O)N2CCC[C@H]2C1O` (some centres undefined), for which the GI50 in [1], in [2], in [3], in assay [4], in assay [5] and in assay [6] was > 100 µM (inactive) in each case. Also, the GI50 in assay [7], in [8], in assay [9], in assay [10], in assay [11] and in assay [18] was > 100 µM (inactive) in each case. For the same compound, the GI50 in assay [12], in [13], in assay [14], in [19], in [15] and in [16] was > 100 µM (inactive) throughout. Moreover, in [17], the GI50 is > 100 µM (inactive).
In the case of `COc1ccc(CC2c3cc(OC)c(OC)c(OC)c3CC[N+]2(C)C)cc1Oc1ccc(CC2c3cc4c(c(OC)c3CCN2C)OCO4)cc1` (centres undefined), the GI50 in assay [1], in assay [2], in [3], in assay [4], in [5] and in [6] was > 100 µM (inactive) each time. Moreover, the GI50 in assay [7] was > 100 µM (inactive); in [8] it was > 100 µM (inactive); in assay [9] it was > 100 µM (inactive); in assay [10], > 100 µM (inactive); in [11], > 100 µM (inactive); in assay [18], 96.6 µM (inactive). The GI50 in assay [20] was > 100 µM (inactive); in assay [12], > 100 µM (inactive); in [13] it was 35.5 µM (inactive); in assay [19], 57.5 µM (inactive); in assay [15], > 100 µM (inactive); in [16] it was > 100 µM (inactive). In addition, in assay [17], the GI50 was > 100 µM (inactive).
As to `CC(=O)Nc1ccc(C(=O)NN2C(=O)CSC2c2ccccc2)cc1` (centres undefined), the GI50 in assay [1], in assay [2], in assay [3], in [4], in assay [5] and in assay [6] was > 100 µM (inactive) throughout. The GI50 was > 100 µM (inactive) in [7]; > 100 µM (inactive) in assay [8]; > 100 µM (inactive) in [9]; 34.5 µM (inactive) in assay [10]; > 100 µM (inactive) in assay [11]; > 100 µM (inactive) in assay [18]. Besides, the GI50 in assay [12] was > 100 µM (inactive); in assay [14], > 100 µM (inactive); in assay [19] it was > 100 µM (inactive); in [15], > 100 µM (inactive); in assay [16], 69.5 µM (inactive); in [17], > 100 µM (inactive).
With `[N-]=[N+]=NC1=C(c2ccccn2)C(=O)c2cccc3cccc1c23`, the GI50 was 5.48 µM (inactive) in [1]; 31.1 µM (inactive) in [2]; 27.7 µM (inactive) in [3]; 7.48 µM (inactive) in [4]; 25.2 µM (inactive) in assay [5]; 19.2 µM (inactive) in assay [6]. Further, the GI50 was 20.8 µM (inactive) in assay [8]; 23.6 µM (inactive) in assay [9]; 27.3 µM (inactive) in [10]; 27.7 µM (inactive) in [11]; 6.84 µM (inactive) in assay [18]; 49.2 µM (inactive) in assay [20]. The GI50 in assay [12] is 50.8 µM (inactive); in [13] it was 20.7 µM (inactive); in assay [14] it was 7.03 µM (inactive); in assay [19], 23.2 µM (inactive); in assay [15] it was 69.3 µM (inactive); in [16], 43.5 µM (inactive). Further, the GI50 in assay [17] is 37.2 µM (inactive).
Consider `CC1OC(=O)C(C(C)C)NC(=O)C(C(C)C)OC(=O)C(C(C)C)NC(=O)C(C)OC(=O)C(C(C)C)NC(=O)C(C(C)C)OC(=O)C(C(C)C)NC(=O)C(C)OC(=O)C(C(C)C)NC(=O)C(C(C)C)OC(=O)C(C(C)C)NC1=O` (centres undefined), for which the GI50 was 0.0025 µM (active) in [1]; 0.0025 µM (active) in assay [3]; 0.00281 µM (active) in [4]; < 0.0001 µM (active) in [5]; 0.0025 µM (active) in assay [6]; 0.00273 µM (active) in assay [8]. For the same compound, the GI50 in assay [9] was 0.0025 µM (active); in assay [10], < 0.0001 µM (active); in assay [20], 0.0025 µM (active); in assay [12], 0.00728 µM (active); in assay [13], 0.00275 µM (active); in assay [14], 0.0032 µM (active). The GI50 is 0.00299 µM (active) in [19], < 0.0001 µM (active) in [15], 0.00288 µM (active) in assay [16] and 0.00324 µM (active) in [17].
Turning to `CC(N1CCOCC1)C(O)(c1ccccc1)c1ccccn1` (centres undefined), the GI50 in [1] is 38.8 µM (inactive); in assay [2], > 100 µM (inactive); in assay [3] it was > 100 µM (inactive); in assay [4], > 100 µM (inactive); in assay [5], > 100 µM (inactive); in [6], > 100 µM (inactive). Besides, the GI50 in [7] was > 100 µM (inactive); in [8], > 100 µM (inactive); in [9] it was 41 µM (inactive); in [10], > 100 µM (inactive); in assay [11] it was > 100 µM (inactive); in [18], > 100 µM (inactive). Also, the GI50 in [20] is > 100 µM (inactive); in [12], > 100 µM (inactive); in assay [13], 44.9 µM (inactive); in assay [19] it was > 100 µM (inactive); in [15], > 100 µM (inactive); in assay [16] it was > 100 µM (inactive). The GI50 in assay [17] was > 100 µM (inactive).

Values taken from ChEMBL document CHEMBL1201862, “PubChem BioAssay data set” (2004).
